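Test compounds were applied to cells in 96-well plates for 48 hours at 5 doses. At the GI50, growth is halved.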 Calls of active or inactive are those of the source. No stated cut-off is given here; in the data, active = GI50 up to about 1.1 µM and inactive = higher.
Experiments:
Assay in all cases: NCI tumour cell line growth inhibition, 48 h
SW-620 = tested on: SW-620
UO-31 = tested on: UO-31
OVCAR-8 = tested on: OVCAR-8
SF-539 = tested on: SF-539
SNB-75 = tested on: SNB-75
HOP-92 = tested on: HOP-92
OVCAR-5 = tested on: OVCAR-5
SK-MEL-2 = tested on: SK-MEL-2
HOP-62 = tested on: HOP-62
CCRF-CEM = tested on: CCRF-CEM
SNB-19 = tested on: SNB-19
HCT-15 = tested on: HCT-15
M14 = tested on: M14
UACC-257 = tested on: UACC-257
EKVX = tested on: EKVX
MDA-MB-435 = tested on: MDA-MB-435
HT-29 = tested on: HT-29
UACC-62 = tested on: UACC-62
DU-145 = tested on: DU-145
NCI-H522 = tested on: NCI-H522
RPMI-8226 = tested on: RPMI-8226
NCI-H226 = tested on: NCI-H226
SR = tested on: SR
T47D = tested on: T47D
HL-60 = tested on: HL-60
BT-549 = tested on: BT-549
NCI-H460 = tested on: NCI-H460
HCC 2998 = tested on: HCC 2998
A498 = tested on: A498
LOX IMVI = tested on: LOX IMVI
SK-OV-3 = tested on: SK-OV-3
Malme-3M = tested on: Malme-3M
SF-295 = tested on: SF-295
NCI-H23 = tested on: NCI-H23
SK-MEL-5 = tested on: SK-MEL-5
SF-268 = tested on: SF-268
COLO 205 = tested on: COLO 205
TK-10 = tested on: TK-10
IGROV-1 = tested on: IGROV-1
KM12 = tested on: KM12
MDA-N = tested on: MDA-N
MCF7 = tested on: MCF7
U-251 = tested on: U-251
Hs-578T = tested on: Hs-578T
NCI/ADR-RES = tested on: NCI/ADR-RES
OVCAR-4 = tested on: OVCAR-4
MDA-MB-231 = tested on: MDA-MB-231
786-0 = tested on: 786-0
CAKI-1 = tested on: CAKI-1
ACHN = tested on: ACHN
PC-3 = tested on: PC-3
MOLT-4 = tested on: MOLT-4
K562 = tested on: K562
SN12C = tested on: SN12C
OVCAR-3 = tested on: OVCAR-3
HCT-116 = tested on: HCT-116
SK-MEL-28 = tested on: SK-MEL-28
A549 = tested on: A549

Q: How did the GI50 (SW-620) turn out when `C=C1CC(COc2ccc3c(C)c(Cl)c(=O)oc3c2)(c2ccccc2)OC1=O` (stereo not drawn) was run?
A: The GI50 was 690 nM (active).

Q: And the GI50 (UO-31)?
A: The GI50 was 3330 nM (inactive).

Q: And the GI50 (OVCAR-8)?
A: Its GI50 is 2060 nM (inactive).

Q: And the GI50 (SF-539)?
A: Its GI50 is 3380 nM (inactive).

Q: What about the GI50 (SNB-75) of the same molecule?
A: The GI50 was 3470 nM (inactive).

Q: And the GI50 (HOP-92)?
A: Its GI50 is 1470 nM (inactive).

Q: What about the GI50 (OVCAR-5) of the same molecule?
A: The GI50 was 12400 nM (inactive).

Q: And the GI50 (SK-MEL-2)?
A: The GI50 was 1750 nM (inactive).

Q: And the GI50 (HOP-62)?
A: Its GI50 is 7030 nM (inactive).

Q: What about the GI50 (CCRF-CEM) of the same molecule?
A: Its GI50 is 302 nM (active).

Q: And the GI50 (SNB-19)?
A: Its GI50 is 13800 nM (inactive).

Q: What about the GI50 (HCT-15) of the same molecule?
A: Its GI50 is 2260 nM.

Q: And the GI50 (M14)?
A: The GI50 was 1040 nM (active).

Q: What about the GI50 (UACC-257) of the same molecule?
A: Its GI50 is 1610 nM (inactive).

Q: And the GI50 (EKVX)?
A: Its GI50 is 10500 nM (inactive).

Q: And the GI50 (MDA-MB-435)?
A: Its GI50 is 2450 nM (inactive).

Q: What about the GI50 (HT-29) of the same molecule?
A: Its GI50 is 1240 nM (inactive).

Q: And the GI50 (UACC-62)?
A: The GI50 was 1740 nM (inactive).

Q: And the GI50 (DU-145)?
A: Its GI50 is 3010 nM (inactive).

Q: And the GI50 (NCI-H522)?
A: The GI50 was 1140 nM (inactive).

Q: And the GI50 (RPMI-8226)?
A: The GI50 was 442 nM (active).

Q: And the GI50 (NCI-H226)?
A: Its GI50 is 2340 nM (inactive).

Q: What about the GI50 (SR) of the same molecule?
A: The GI50 was 1300 nM (inactive).

Q: What about the GI50 (T47D) of the same molecule?
A: Its GI50 is 2040 nM (inactive).

Q: And the GI50 (HL-60)?
A: Its GI50 is 277 nM (active).

Q: What about the GI50 (BT-549) of the same molecule?
A: The GI50 was 1530 nM (inactive).

Q: What about the GI50 (NCI-H460) of the same molecule?
A: Its GI50 is 8000 nM (inactive).

Q: What about the GI50 (HCC 2998) of the same molecule?
A: Its GI50 is 1710 nM (inactive).

Q: What about the GI50 (A498) of the same molecule?
A: The GI50 was 11800 nM (inactive).

Q: What about the GI50 (LOX IMVI) of the same molecule?
A: Its GI50 is 887 nM (active).

Q: What about the GI50 (SK-OV-3) of the same molecule?
A: Its GI50 is 5920 nM (inactive).

Q: What about the GI50 (Malme-3M) of the same molecule?
A: Its GI50 is 1670 nM (inactive).

Q: What about the GI50 (SF-295) of the same molecule?
A: The GI50 was 7130 nM (inactive).

Q: And the GI50 (NCI-H23)?
A: The GI50 was 1570 nM (inactive).

Q: What about the GI50 (SK-MEL-5) of the same molecule?
A: The GI50 was 1740 nM (inactive).

Q: What about the GI50 (SF-268) of the same molecule?
A: Its GI50 is 4460 nM (inactive).

Q: What about the GI50 (COLO 205) of the same molecule?
A: Its GI50 is 675 nM (active).

Q: And the GI50 (TK-10)?
A: The GI50 was 1530 nM (inactive).

Q: And the GI50 (IGROV-1)?
A: Its GI50 is 1940 nM (inactive).

Q: And the GI50 (KM12)?
A: Its GI50 is 2480 nM (inactive).

Q: And the GI50 (MDA-N)?
A: Its GI50 is 2070 nM (inactive).

Q: What about the GI50 (MCF7) of the same molecule?
A: Its GI50 is 1080 nM (active).

Q: What about the GI50 (U-251) of the same molecule?
A: Its GI50 is 8150 nM (inactive).

Q: And the GI50 (Hs-578T)?
A: Its GI50 is 5580 nM (inactive).

Q: What about the GI50 (NCI/ADR-RES) of the same molecule?
A: Its GI50 is 2970 nM (inactive).

Q: What about the GI50 (OVCAR-4) of the same molecule?
A: The GI50 was 1670 nM (inactive).

Q: What about the GI50 (MDA-MB-231) of the same molecule?
A: Its GI50 is 3780 nM (inactive).

Q: What about the GI50 (786-0) of the same molecule?
A: Its GI50 is 1510 nM (inactive).

Q: And the GI50 (CAKI-1)?
A: The GI50 was 1370 nM (inactive).

Q: What about the GI50 (ACHN) of the same molecule?
A: The GI50 was 2860 nM (inactive).

Q: And the GI50 (PC-3)?
A: The GI50 was 1900 nM (inactive).

Q: What about the GI50 (MOLT-4) of the same molecule?
A: The GI50 was 805 nM (active).

Q: And the GI50 (K562)?
A: Its GI50 is 422 nM (active).

Q: What about the GI50 (SN12C) of the same molecule?
A: The GI50 was 6100 nM (inactive).

Q: What about the GI50 (OVCAR-3) of the same molecule?
A: The GI50 was 2140 nM (inactive).

Q: What about the GI50 (HCT-116) of the same molecule?
A: Its GI50 is 1010 nM (active).

Q: And the GI50 (SK-MEL-28)?
A: The GI50 was 2110 nM (inactive).

Q: What about the GI50 (A549) of the same molecule?
A: Its GI50 is 11900 nM (inactive).
